Experiments:
Format in all cases: in vivo
[1] = tested on: barnyardgrass (Echinochloa crus-galli); experiment: Test A pre-/postemergence greenhouse herbicide test; conditions: 0 to 100 scale (0 no effect, 100 complete control), approx. 10 d
Text: (§1) Seeds of plant species selected from barnyardgrass (Echinochloa crus-galli), crabgrass, Large (large crabgrass, Digitaria sanguinalis), foxtail, giant (giant foxtail, Setaria faberii), morningglory (Ipomoea spp.), pigweed (Amaranthus retroflexus), velvetleaf (Abutilon theophrasti), wheat (Triticum aestivum), and corn (Zea mays) were planted into a blend of loam soil and sand and treated preemergence with a directed soil spray using test chemicals formulated in a non-phytotoxic solvent mixture which included a surfactant. At the same time these species were also treated with postemergence applications of test chemicals formulated in the same manner.
(§2) Plants ranged in height from 2 to 10 cm and were in the one- to two-leaf stage for the postemergence treatment. Treated plants and untreated controls were maintained in a greenhouse for approximately 10 d, after which time all treated plants were compared to untreated controls and visually evaluated for injury. Plant response ratings, summarized in Table A, are based on a 0 to 100 scale where 0 is no effect and 100 is complete control. A dash (-) response means no test result.

[2] = tested on: corn (Zea mays); experiment: as above; conditions: 0 to 100 scale (0 no effect, 100 complete control), approx. 10 d
Text: as §1, §2

[3] = tested on: crabgrass, Large (large crabgrass, Digitaria sanguinalis); experiment: as above; conditions: 0 to 100 scale (0 no effect, 100 complete control), approx. 10 d
Text: as §1, §2

[4] = tested on: foxtail, giant (giant foxtail, Setaria faberii); experiment: as above; conditions: 0 to 100 scale (0 no effect, 100 complete control), approx. 10 d
Text: as §1, §2

[5] = tested on: morningglory (Ipomoea spp.); experiment: as above; conditions: 0 to 100 scale (0 no effect, 100 complete control), approx. 10 d
Text: as §1, §2

[6] = tested on: pigweed (Amaranthus retroflexus); experiment: as above; conditions: 0 to 100 scale (0 no effect, 100 complete control), approx. 10 d
Text: as §1, §2

[7] = tested on: velvetleaf (Abutilon theophrasti); experiment: as above; conditions: 0 to 100 scale (0 no effect, 100 complete control), approx. 10 d
Text: as §1, §2

[8] = tested on: wheat (Triticum aestivum); experiment: as above; conditions: 0 to 100 scale (0 no effect, 100 complete control), approx. 10 d
Text: as §1, §2

[9] = tested on: barnyardgrass (Echinochloa crus-galli); experiment: Test B flooded paddy test; conditions: Flood, scale of 0 to 100, 0 is no effect, 100 is complete control, 13 to 15 d
Method: (§3) Plant species in the flooded paddy test selected from rice (Oryza sativa), small-flower sedge, umbrella (small-flower umbrella sedge, Cyperus difformis), ducksalad (Heteranthera limosa), and barnyardgrass (Echinochloa crus-galli) were grown to the 2-leaf stage for testing. At time of treatment, test pots were flooded to 3 cm above the soil surface, treated by application of test compounds directly to the paddy water, and then maintained at that water depth for the duration of the test. Treated plants and controls were maintained in a greenhouse for 13 to 15 d, after which time all species were compared to controls and visually evaluated. Plant response ratings, summarized in Table B, are based on a scale of 0 to 100 where 0 is no effect and 100 is complete control. A dash (-) response means no test result.

[10] = tested on: ducksalad (Heteranthera limosa); experiment: Test B flooded paddy test; conditions: Flood, scale of 0 to 100, 0 is no effect, 100 is complete control, 13 to 15 d
Method: as §3

[11] = tested on: rice (Oryza sativa); experiment: Test B flooded paddy test; conditions: Flood, scale of 0 to 100, 0 is no effect, 100 is complete control, 13 to 15 d
Method: as §3

[12] = tested on: sedge, umbrella (small-flower umbrella sedge, Cyperus difformis); experiment: Test B flooded paddy test; conditions: Flood, scale of 0 to 100, 0 is no effect, 100 is complete control, 13 to 15 d
Method: as §3

Compound	Plant response rating, Barnyardgrass ([1]; Postemergence, 125 g ai/ha)	Plant response rating, Barnyardgrass ([1]; Postemergence, 500 g ai/ha)	Plant response rating, Corn ([2]; Postemergence, 125 g ai/ha)	Plant response rating, Corn ([2]; Postemergence, 500 g ai/ha)	Plant response rating, Corn ([2]; Preemergence, 125 g ai/ha)	Plant response rating, Corn ([2]; Preemergence, 500 g ai/ha)	Plant response rating, Crabgrass, Large ([3]; Postemergence, 125 g ai/ha)	Plant response rating, Crabgrass, Large ([3]; Postemergence, 500 g ai/ha)	Plant response rating, Crabgrass, Large ([3]; Preemergence, 125 g ai/ha)	Plant response rating, Crabgrass, Large ([3]; Preemergence, 500 g ai/ha)	Plant response rating, Foxtail, Giant ([4]; Postemergence, 125 g ai/ha)	Plant response rating, Foxtail, Giant ([4]; Postemergence, 500 g ai/ha)	Plant response rating, Foxtail, Giant ([4]; Preemergence, 125 g ai/ha)	Plant response rating, Foxtail, Giant ([4]; Preemergence, 500 g ai/ha)	Plant response rating, Morningglory ([5]; Postemergence, 125 g ai/ha)	Plant response rating, Morningglory ([5]; Postemergence, 500 g ai/ha)	Plant response rating, Morningglory ([5]; Preemergence, 125 g ai/ha)	Plant response rating, Morningglory ([5]; Preemergence, 500 g ai/ha)	Plant response rating, Pigweed ([6]; Postemergence, 125 g ai/ha)	Plant response rating, Pigweed ([6]; Postemergence, 500 g ai/ha)	further results
Cc1cc(=O)n(-c2cccc(C(F)(F)F)c2)nc1Oc1ccnc(C(F)(F)F)c1 [Compound 4]	10	20	10	30	0	10	30	60	90	100	30	70	70	100	40	70	20	40	100	100	Plant response rating, Barnyardgrass ([1]; Preemergence, 125 g ai/ha): 10; Plant response rating, Barnyardgrass ([1]; Preemergence, 500 g ai/ha): 40; Plant response rating, Pigweed ([6]; Preemergence, 125 g ai/ha): 100; Plant response rating, Pigweed ([6]; Preemergence, 500 g ai/ha): 100; Plant response rating, Velvetleaf ([7]; Postemergence, 125 g ai/ha): 90; Plant response rating, Velvetleaf ([7]; Postemergence, 500 g ai/ha): 100; Plant response rating, Velvetleaf ([7]; Preemergence, 125 g ai/ha): 10; Plant response rating, Velvetleaf ([7]; Preemergence, 500 g ai/ha): 20; Plant response rating, Wheat ([8]; Postemergence, 125 g ai/ha): 10; Plant response rating, Wheat ([8]; Postemergence, 500 g ai/ha): 20; Plant response rating, Wheat ([8]; Preemergence, 125 g ai/ha): 0; Plant response rating, Wheat ([8]; Preemergence, 500 g ai/ha): 10; Plant response rating, Barnyardgrass ([9]; 125 g ai/ha): 20; Plant response rating, Ducksalad ([10]; 125 g ai/ha): 65; Plant response rating, Rice ([11]; 125 g ai/ha): 40; Plant response rating, Sedge, Umbrella ([12]; 125 g ai/ha): 70
O=c1c2c(c(Oc3ccnc(C(F)(F)F)c3)nn1-c1ccc(Cl)cc1)CCCC2 [Compound 7]	0	10	10	10	0	0	10	10	0	40	10	10	0	30	10	20	0	0	90	100	Plant response rating, Barnyardgrass ([1]; Preemergence, 125 g ai/ha): 0; Plant response rating, Barnyardgrass ([1]; Preemergence, 500 g ai/ha): 40; Plant response rating, Pigweed ([6]; Preemergence, 125 g ai/ha): 20; Plant response rating, Pigweed ([6]; Preemergence, 500 g ai/ha): 50; Plant response rating, Velvetleaf ([7]; Postemergence, 125 g ai/ha): 20; Plant response rating, Velvetleaf ([7]; Postemergence, 500 g ai/ha): 40; Plant response rating, Velvetleaf ([7]; Preemergence, 125 g ai/ha): 0; Plant response rating, Velvetleaf ([7]; Preemergence, 500 g ai/ha): 0; Plant response rating, Wheat ([8]; Postemergence, 125 g ai/ha): 0; Plant response rating, Wheat ([8]; Postemergence, 500 g ai/ha): 10; Plant response rating, Wheat ([8]; Preemergence, 125 g ai/ha): 0; Plant response rating, Wheat ([8]; Preemergence, 500 g ai/ha): 0; Plant response rating, Barnyardgrass ([9]; 125 g ai/ha): 0; Plant response rating, Ducksalad ([10]; 125 g ai/ha): 0; Plant response rating, Rice ([11]; 125 g ai/ha): 0; Plant response rating, Sedge, Umbrella ([12]; 125 g ai/ha): 0
Cc1cc(=O)n(-c2ccc(F)cc2)nc1Cc1cccc(C(F)(F)F)c1 [Compound 8]	20	50	20	40	0	0	40	90	90	100	50	90	80	90	80	80	0	0	90	100	Plant response rating, Barnyardgrass ([1]; Preemergence, 125 g ai/ha): 20; Plant response rating, Barnyardgrass ([1]; Preemergence, 500 g ai/ha): 80; Plant response rating, Pigweed ([6]; Preemergence, 125 g ai/ha): 90; Plant response rating, Pigweed ([6]; Preemergence, 500 g ai/ha): 100; Plant response rating, Velvetleaf ([7]; Postemergence, 125 g ai/ha): 20; Plant response rating, Velvetleaf ([7]; Postemergence, 500 g ai/ha): 80; Plant response rating, Velvetleaf ([7]; Preemergence, 125 g ai/ha): 0; Plant response rating, Velvetleaf ([7]; Preemergence, 500 g ai/ha): 0; Plant response rating, Wheat ([8]; Postemergence, 125 g ai/ha): 10; Plant response rating, Wheat ([8]; Postemergence, 500 g ai/ha): 20; Plant response rating, Wheat ([8]; Preemergence, 125 g ai/ha): 0; Plant response rating, Wheat ([8]; Preemergence, 500 g ai/ha): 0; Plant response rating, Barnyardgrass ([9]; 250 g ai/ha): 20; Plant response rating, Ducksalad ([10]; 250 g ai/ha): 0; Plant response rating, Rice ([11]; 250 g ai/ha): 25; Plant response rating, Sedge, Umbrella ([12]; 250 g ai/ha): 75
Cc1cc(Oc2cc(C(F)(F)F)ccn2)nn(-c2ccc(F)cc2)c1=O [Compound 9]	0	0	0	0	0	0	0	0	0	0	0	0	0	0	0	0	0	0	0	0	Plant response rating, Pigweed ([6]; Preemergence, 125 g ai/ha): 0; Plant response rating, Pigweed ([6]; Preemergence, 500 g ai/ha): 0; Plant response rating, Velvetleaf ([7]; Postemergence, 125 g ai/ha): 0; Plant response rating, Velvetleaf ([7]; Postemergence, 500 g ai/ha): 0; Plant response rating, Velvetleaf ([7]; Preemergence, 125 g ai/ha): 0; Plant response rating, Velvetleaf ([7]; Preemergence, 500 g ai/ha): 0; Plant response rating, Wheat ([8]; Postemergence, 125 g ai/ha): 0; Plant response rating, Wheat ([8]; Postemergence, 500 g ai/ha): 0; Plant response rating, Wheat ([8]; Preemergence, 125 g ai/ha): 0; Plant response rating, Wheat ([8]; Preemergence, 500 g ai/ha): 0; Plant response rating, Barnyardgrass ([9]; 250 g ai/ha): 0; Plant response rating, Ducksalad ([10]; 250 g ai/ha): 0; Plant response rating, Rice ([11]; 250 g ai/ha): 0; Plant response rating, Sedge, Umbrella ([12]; 250 g ai/ha): 0
Cc1cc(=O)n(-c2ccc(F)cc2)nc1Oc1cc(C(F)(F)F)ccn1 [Compound 10]	0	0	0	10	0	0	10	20	0	10	0	10	0	20	30	30	0	0	30	60	Plant response rating, Pigweed ([6]; Preemergence, 125 g ai/ha): 0; Plant response rating, Pigweed ([6]; Preemergence, 500 g ai/ha): 30; Plant response rating, Velvetleaf ([7]; Postemergence, 125 g ai/ha): 0; Plant response rating, Velvetleaf ([7]; Postemergence, 500 g ai/ha): 10; Plant response rating, Velvetleaf ([7]; Preemergence, 125 g ai/ha): 0; Plant response rating, Velvetleaf ([7]; Preemergence, 500 g ai/ha): 0; Plant response rating, Wheat ([8]; Postemergence, 125 g ai/ha): 0; Plant response rating, Wheat ([8]; Postemergence, 500 g ai/ha): 0; Plant response rating, Wheat ([8]; Preemergence, 125 g ai/ha): 0; Plant response rating, Wheat ([8]; Preemergence, 500 g ai/ha): 0; Plant response rating, Barnyardgrass ([9]; 250 g ai/ha): 0; Plant response rating, Ducksalad ([10]; 250 g ai/ha): 0; Plant response rating, Rice ([11]; 250 g ai/ha): 0; Plant response rating, Sedge, Umbrella ([12]; 250 g ai/ha): 0

Source: patent US10202361B2, “Pyridazinones as herbicides” (E I DU PONT DE NEMOURS AND COMPANY, priority 2014, dated 2019)
